Holding throughout (format): in vivo
The test system of data set [1] is Beet Armyworm (Spodoptera exigua, LAPHEG) ("BAW"). The data set can be described thus: Bioassays on Beet Armyworm (BAW), 128-well diet tray assay. The following applies: Spodoptera exigua, 168 h, read-out: BAW % Control (or Mortality) rating. The method, then:
(§1) Certain molecules disclosed in this document were tested against BAW and CEW using procedures described in the following examples. In the reporting of the results, the “BAW & CL Rating Table” was used (See Table Section).
Bioassays on BAW were conducted using a 128-well diet tray assay. one to five second instar BAW larvae were placed in each well (3 mL) of the diet tray that had been previously filled with 1 mL of artificial diet to which 50 μg/cm^2 of the test compound (dissolved in 50 μL of 90:10 acetone-water mixture) had been applied (to each of eight wells) and then allowed to dry. Trays were covered with a clear self-adhesive cover and held at 25° C., 14:10 light-dark for five to seven days. Percent mortality was recorded for the larvae in each well; activity in the eight wells was then averaged. The results are indicated in the table entitled “Table ABC: Biological Results” (See Table Section).

Data set [2] deals with Cabbage Looper (Trichoplusia ni, TRIPNI) ("CL"). The data set can be described thus: Bioassays on Cabbage Looper (CL), 128-well diet tray assay. The following applies: Trichoplusia ni, 168 h, read-out: CL % Control (or Mortality) rating. The method, then: as §1
Bioassays on CL were conducted using a 128-well diet tray assay. one to five second instar CL larvae were placed in each well (3 mL) of the diet tray that had been previously filled with 1 mL of artificial diet to which 50 μg/cm^2 of the test compound (dissolved in 50 μL of 90:10 acetone-water mixture) had been applied (to each of eight wells) and then allowed to dry. Trays were covered with a clear self-adhesive cover and held at 25° C., 14:10 light-dark for five to seven days. Percent mortality was recorded for the larvae in each well; activity in the eight wells was then averaged. The results are indicated in the table entitled “Table ABC: Biological Results” (See Table Section).

Data set [3] concerns Yellow Fever Mosquito (Aedes aegypti, AEDSAE) ("YFM"). The following applies: about 1 day-old larvae, 4000 ppm master solution diluted, 3 days, room temperature. The method, then:
Certain molecules disclosed in this document were tested against YFM using procedures described in the following paragraph. In the reporting of the results, the “YFM Rating Table” was used (See Table Section).
Master plates containing 400 μg of a molecule dissolved in 100 μL of dimethyl sulfoxide (DMSO) (equivalent to a 4000 ppm solution) are used. A master plate of assembled molecules contains 15 μL per well. To this plate, 135 μL of a 90:10 water:acetone mixture is added to each well. A robot (Biomek® NXP Laboratory Automation Workstation) is programmed to dispense 15 μL aspirations from the master plate into an empty 96-well shallow plate (“daughter” plate). There are 6 reps (“daughter” plates) created per master. The created daughter plates are then immediately infested with YFM larvae.
The day before plates are to be treated, mosquito eggs are placed in Millipore water containing liver powder to begin hatching (4 g. into 400 mL). After the daughter plates are created using the robot, they are infested with 220 μL of the liver powder/larval mosquito mixture (about 1 day-old larvae). After plates are infested with mosquito larvae, a non-evaporative lid is used to cover the plate to reduce drying. Plates are held at room temperature for 3 days prior to grading. After 3 days, each well is observed and scored based on mortality.

The mark [4] stands for this setting: second instar BAW larvae, 50 μg/cm^2 on artificial diet, five to seven days, 25° C.

Molecules are shown by their SMILES. Read-outs that look alike come from different tables or passages of the source.

Take `CC(=O)c1ccccc1-c1cccc(C(=O)Nc2ccc(-c3ncn(-c4ccc(OC(F)(F)C(F)(F)F)cc4)n3)cc2)c1` [F9, 2′-Acetyl-N-(4-(1-(4-(perfluoroethoxy)phenyl)-1H-1,2,4-triazol-3-yl)phenyl)-[1,1′-biphenyl]-3-carboxamide]: the mortality at 50 µg/cm2 in data set [1] (setting [4]) and in data set [2] was 50 to 100% throughout. In addition, in data set [3], the “YFM % Control (or Mortality) rating” value is reported as “A (80-100)”.
As to `CN(C)c1ccccc1-c1cccc(C(=O)Nc2ccc(-c3ncn(-c4ccc(OC(F)(F)F)cc4)n3)cc2)c1` [F10, 2′-(Dimethylamino)-N-(4-(1-(4-(trifluoromethoxy)phenyl)-1H-1,2,4-triazol-3-yl)phenyl)-[1,1′-biphenyl]-3-carboxamide], the mortality at 50 µg/cm2 in data set [1] (setting [4]) and in data set [2] was 50 to 100% throughout. For the same compound, in data set [3], the “YFM % Control (or Mortality) rating” value was “B (More than 0-Less than 80)”.
As to `O=C(Nc1ccc(-c2ncn(-c3ccc(OC(F)(F)F)cc3)n2)cc1)c1ccc(F)c(-c2ccccc2)c1` [F11, 6-Fluoro-N-(4-(1-(4-(trifluoromethoxy)phenyl)-1H-1,2,4-triazol-3-yl)phenyl)-[1,1′-biphenyl]-3-carboxamide], the mortality at 50 µg/cm2 in data set [1] (setting [4]) and in data set [2] was 50 to 100% in each case. Further, in data set [3], the “YFM % Control (or Mortality) rating” value is recorded as “D (No activity noticed in this bioassay)”.
Regarding `COc1ccc(C(=O)Nc2ccc(-c3ncn(-c4ccc(OC(F)(F)C(F)(F)F)cc4)n3)cc2)cc1-c1ccccc1` [F13, 6-Methoxy-N-(4-(1-(4-(perfluoroethoxy)phenyl)-1H-1,2,4-triazol-3-yl)phenyl)-[1,1′-biphenyl]-3-carboxamide], the results for the mortality at 50 µg/cm2 in data set [1] (setting [4]) and in data set [2] were 0% and 50 to 100%, respectively. Moreover, the “YFM % Control (or Mortality) rating” value in data set [3] was “D (No activity noticed in this bioassay)”.
For `O=C(Nc1ccc(-c2ncn(-c3ccc(OC(F)(F)F)cc3)n2)cc1)c1cc(-c2ccccc2)ccc1Cl` [F15, 4-Chloro-N-(4-(1-(4-(trifluoromethoxy)phenyl)-1H-1,2,4-triazol-3-yl)phenyl)-[1,1′-biphenyl]-3-carboxamide] the same measures were 0%, 0% and “D (No activity noticed in this bioassay)”.
`CC(C)Oc1ccc(-n2cnc(-c3ccc(NC(=O)c4ccc(F)c(-c5ccccc5)c4)cc3)n2)cc1` [F16, 6-Fluoro-N-(4-(1-(4-isopropoxyphenyl)-1H-1,2,4-triazol-3-yl)phenyl)-[1,1′-biphenyl]-3-carboxamide]: the mortality at 50 µg/cm2 in data set [1] (setting [4]) was 0%; in data set [2] it was 50 to 100%. Moreover, the “YFM % Control (or Mortality) rating” value in data set [3] was “B (More than 0-Less than 80)”.
For `Cc1ccccc1-c1cccc(C(=O)Nc2ccc(-c3ncn(-c4ccc(OC(F)(F)F)cc4)n3)cc2)c1` [F17, 2′-Methyl-N-(4-(1-(4-(trifluoromethoxy)phenyl)-1H-1,2,4-triazol-3-yl)phenyl)-[1,1′-biphenyl]-3-carboxamide] the same measures were 50 to 100%, 50 to 100% and “D (No activity noticed in this bioassay)”.
For `O=C(Nc1ccc(-c2ncn(-c3ccc(OC(F)(F)F)cc3)n2)cc1)c1cccc(-c2ccc(Cl)cc2Cl)n1` [F18, 6-(2,4-Dichlorophenyl)-N-(4-(1-(4-(trifluoromethoxy)phenyl)-1H-1,2,4-triazol-3-yl)phenyl)picolinamide] the same measures were 0%, 0% and “D (No activity noticed in this bioassay)”.
For `COc1ccccc1-c1cccc(C(=O)N(C)c2ccc(-c3ncn(-c4ccc(OC(F)(F)F)cc4)n3)cc2)c1` [F19, 2′-methoxy-N-methyl-N-(4-(1-(4-(trifluoromethoxy)phenyl)-1H-1,2,4-triazol-3-yl)phenyl)-[1,1′-biphenyl]-3-carboxamide] the same measures were 50 to 100%, 50 to 100% and “A (80-100)”.
As for `COc1ccccc1-c1cc(C(=O)Nc2ccc(-c3ncn(-c4ccc(C(F)(F)F)cc4)n3)cc2)ccc1F` [F20, 6-fluoro-2′-methoxy-N-(4-(1-(4-(trifluoromethyl)phenyl)-1H-1,2,4-triazol-3-yl)phenyl)-[1,1′-biphenyl]-3-carboxamide], the mortality at 50 µg/cm2 in data set [1] (setting [4]) and in data set [2] was 50 to 100% each time. In addition, in data set [3], the “YFM % Control (or Mortality) rating” value was “A (80-100)”.
Regarding `COc1ccccc1-c1cccc(C(=S)Nc2ccc(-c3ncn(-c4ccc(OC(F)(F)F)cc4)n3)cc2)c1` [F21, 2′-Methoxy-N-(4-(1-(4-(trifluoromethoxy)phenyl)-1H-1,2,4-triazol-3-yl)phenyl)-[1,1′-biphenyl]-3-carbothioamide], the mortality at 50 µg/cm2 in data set [1] (setting [4]) and in data set [2] was 50 to 100% throughout. In addition, in data set [3], the “YFM % Control (or Mortality) rating” value is recorded as “A (80-100)”.
For the compound `COc1ccccc1-c1cccc(C(=O)Nc2ccc(-c3ncn(-c4ccc(OC(F)(F)F)cc4)n3)cc2)c1` [F22, 2′-Methoxy-N-(4-(1-(4-(trifluoromethoxy)phenyl)-1H-1,2,4-triazol-3-yl)phenyl)-[1,1′-biphenyl]-3-carboxamide], the mortality at 50 µg/cm2 in data set [1] (setting [4]) and in data set [2] was 50 to 100% throughout. Besides, in data set [3], the “YFM % Control (or Mortality) rating” value is on record as “A (80-100)”.
For `COc1ccccc1-c1cccc(C(=S)Nc2ccc(-c3ncn(-c4ccc(OC(F)(F)C(F)(F)F)cc4)n3)cc2)c1` [F23, 2′-methoxy-N-(4-(1-(4-(perfluoroethoxy)phenyl)-1H-1,2,4-triazol-3-yl)phenyl)-[1,1′-biphenyl]-3-carbothioamide], the mortality at 50 µg/cm2 in data set [1] (setting [4]) and in data set [2] was 50 to 100% throughout. The “YFM % Control (or Mortality) rating” value in data set [3] was “A (80-100)”.
Regarding `O=C(Nc1ccc(-c2ncn(-c3ccc(OC(F)(F)F)cc3)n2)cc1)c1cc(F)cc(-c2ccccc2)c1` [F25, 5-Fluoro-N-(4-(1-(4-(trifluoromethoxy)phenyl)-1H-1,2,4-triazol-3-yl)phenyl)-[1,1′-biphenyl]-3-carboxamide], the mortality at 50 µg/cm2 in data set [1] and in data set [2] was 50 to 100% throughout. In data set [3], the “YFM % Control (or Mortality) rating” value is on record as “D (No activity noticed in this bioassay)”.
With `COc1ccccc1-c1cccc(C(=O)Nc2ccc(-c3ncn(-c4ccc(OC(F)(F)C(F)(F)F)cc4)n3)cc2)c1` [F26, 2′-Methoxy-N-(4-(1-(4-(perfluoroethoxy)phenyl)-1H-1,2,4-triazol-3-yl)phenyl)-[1,1′-biphenyl]-3-carboxamide], the mortality at 50 µg/cm2 in data set [1] (setting [4]) and in data set [2] was 50 to 100% in each case. Further, in data set [3], the “YFM % Control (or Mortality) rating” value is recorded as “A (80-100)”.
As for `O=C(Nc1ccc(-c2ncn(-c3ccc(OC(F)(F)F)cc3)n2)cc1)c1cccc(-c2ccccc2)n1` [F27, 6-Phenyl-N-(4-(1-(4-(trifluoromethoxy)phenyl)-1H-1,2,4-triazol-3-yl)phenyl)picolinamide], the results for the mortality at 50 µg/cm2 in data set [1] (setting [4]) and in data set [2] were 0 to 50% and 0%, respectively. For the same compound, in data set [3], the “YFM % Control (or Mortality) rating” value is on record as “D (No activity noticed in this bioassay)”.

As a reminder, the mortality is the percentage killed.
